The results in this text go back to patent US9067931B2, “2-heteroaryl carboxamides” (BAYER INTELLECTUAL PROPERTY GMBH, priority 2002, dated 2015).

Counter-ions that a name gives are not always drawn.

Sequence of α7 nAChR (Q05941 23-502): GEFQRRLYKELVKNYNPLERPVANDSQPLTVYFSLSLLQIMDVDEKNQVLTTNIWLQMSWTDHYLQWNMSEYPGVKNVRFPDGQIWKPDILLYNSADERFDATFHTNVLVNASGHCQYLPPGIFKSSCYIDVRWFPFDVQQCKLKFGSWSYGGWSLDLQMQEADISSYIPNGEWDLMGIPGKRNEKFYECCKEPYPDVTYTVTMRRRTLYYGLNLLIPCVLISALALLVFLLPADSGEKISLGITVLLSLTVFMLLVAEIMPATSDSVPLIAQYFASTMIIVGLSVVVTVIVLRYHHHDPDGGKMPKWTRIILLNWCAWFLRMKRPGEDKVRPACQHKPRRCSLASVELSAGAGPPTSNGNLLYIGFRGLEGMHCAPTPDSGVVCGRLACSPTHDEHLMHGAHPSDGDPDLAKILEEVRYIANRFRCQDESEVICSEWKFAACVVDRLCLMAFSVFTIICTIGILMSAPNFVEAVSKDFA

The first test concerns the target α7 nAChR (Rattus norvegicus (Rat), UniProt Q05941). Nature of the test: Inhibition of [3H]-methyllycaconitine binding to rat brain membranes. As to conditions: [3H]-methyllycaconitine displacement, rat brain membranes (hippocampus or whole brain); Ki=IC50/(1+L/KD). As to the method:
Determination of the Affinity of Test Substaces for α7 nAChR by Inhibition of [^3H]-Methyllycaconitine Binding to Rat Brain Membranes
The [^3H]-methyllycaconitine binding assay is a modification of the method described by Davies et al. in Neuropharmacol. 1999, 38, 679-690.
Rat brain tissue (hippocampus or whole brain) is homogenized in homogenization buffer (10% w/v, 0.32 M sucrose, 1 mM EDTA, 0.1 mM phenylmethylsulphonyl fluoride (PMSF), 0.01% (w/v) NaN3, pH 7.4, 4° C.) at 600 rpm in a glass homogenizer. The homogenate is centrifuged (1000×g, 4° C., 10 min) and the supernatant is removed. The pellet is resuspended (20% w/v) and the suspension is centrifuged (1000×g, 4° C., 10 min). The two supernatants are combined and centrifuged (15 000×g, 4° C., 30 min). The pellet obtained in this way is referred to as the P2 fraction.
The P2 pellet is suspended in binding buffer (50 mM Tris-HCl, 1 mM MgCl2, 120 mM NaCl, 5 mM KCl, 2 mM CaCl2, pH 7.4), and the suspension is centrifuged (15 000×g, 4° C., 30 min), twice.
The residue is resuspended in binding buffer and incubated in a volume of 250 μl (amount of membrane protein 0.1-0.5 mg) in the presence of 1-5 nM [^3H]-methyllycaconitine 0.1% (w/v) BSA (bovine serum albumin) and various concentrations of the test substance at 21° C. for 2.5 h. […] in the presence of 1 μM α-bungarotoxin or 100 μM nicotine or 10 μM MLA (methyllycaconitine).
The incubation is stopped by adding 4 ml PBS (20 mM Na2HPO4, 5 mM KH2PO4, 150 mM NaCl, pH 7.4, 4° C.) and filtering through type A/E glass fibre filters (Gelman Sciences) which have previously been placed in 0.3% (v/v) polyethyleneimine (PEI) for 3 h. The filters are washed twice with 4 ml of PBS (4° C.), and the bound radioactivity is determined by scintillation measurement. All the assays are carried out in triplicate. The dissociation constant K1 of the test substance was determined from the IC50 of the compounds (concentration of the test substance at which 50% of the ligand bound to the receptor is displaced), the dissociation constant KD and the concentration L of [^3H]-methyllycaconitine using the equation Ki=IC50/(1+L/KD).
One may read the Ki as a dissociation constant, usually derived from enzyme kinetics or from competition with a known ligand. High values mean lower affinity, low ones higher affinity. In turn, `COc1ccccc1-c1cccc2cc(C(=O)N[C@H]3CN4CCC3CC4)oc12` [Example 130, N-[(3R)-1-Azabicyclo[2.2.2]oct-3-yl]-7-[2-(methoxy)phenyl]-1-benzofuran-2-carboxamide] returned a Ki of 26 nM.

For `CNC(=O)NCc1ccccc1-c1cccc2cc(C(=O)N[C@H]3CN4CCC3CC4)oc12` [Example 175, N-[(3R)-1-Azabicyclo[2.2.2]oct-3-yl]-7-[2-({[(methylamino)carbonyl]amino}-methyl)phenyl]-1-benzofuran-2-carboxamide hydrochloride], the affinity, expressed as Ki, was 8.3 nM.

`NCc1ccccc1-c1cccc2cc(C(=O)N[C@H]3CN4CCC3CC4)sc12` [Example 73, 7-[2-(Aminomethyl)phenyl]-N-[(3R)-1-azabicyclo[2.2.2]oct-3-yl]-1-benzothiophene-2-carboxamide dihydrochloride] displayed an inhibition constant Ki of under 1 nM.

Compound `O=C(N[C@H]1CN2CCC1CC2)c1cc2ccc(-c3ccc(CO)cc3)cc2o1` [Example 3, N-[(3R)-1-Azabicyclo[2.2.2]oct-3-yl]-6-[4-(hydroxymethyl)phenyl]-1-benzofuran-2-carboxamide] showed a Ki of 60 nM.

Take `O=C(O)c1cccc(-c2cccc3cc(C(=O)N[C@H]4CN5CCC4CC5)sc23)c1` [Example 75, 3-(2-{[(3R)-1-Azabicyclo[2.2.2]oct-3-ylamino]carbonyl}-1-benzothien-7-yl)-benzoic acid hydrochloride]: the Ki is under 0.1 nM.

For `O=C(N[C@H]1CN2CCC1CC2)c1cc2cccc(-c3cccc(NC(=O)C4CC4)c3)c2o1` [Example 116, N-[(3R)-1-Azabicyclo[2.2.2]oct-3-yl]-7-{3-[(cyclopropylcarbonyl)amino]phenyl}-1-benzofuran-2-carboxamide hydrochloride], the Ki is 17 nM.

For the compound `O=C(N[C@H]1CN2CCC1CC2)c1cc2cccc(-c3ccccc3O)c2o1` [Example 186, N-[(3R)-1-Azabicyclo[2.2.2]oct-3-yl]-7-(2-hydroxyphenyl)-1-benzofuran-2-carboxamide], the affinity, expressed as Ki, was 120 nM.

In turn, `COc1ccc(OC)c(-c2cccc3cc(C(=O)N[C@H]4CN5CCC4CC5)oc23)c1` [Example 151, N-[(3R)-1-Azabicyclo[2.2.2]oct-3-yl]-7-(2,5-dimethoxyphenyl)-1-benzofuran-2-carboxamide hydrochloride] showed a Ki of 88 nM.

In the case of `O=C(N[C@H]1CN2CCC1CC2)c1cc2cccc(-c3ccc(CO)cc3)c2s1` [Example 20, N-[(3R)-1-Azabicyclo[2.2.2]oct-3-yl]-7-[4-(hydroxymethyl)phenyl]-1-benzothiophene-2-carboxamide hydrochloride], the affinity corresponds to a Ki of 1.6 nM.

With `CCNC(=O)Nc1cccc(-c2cccc3cc(C(=O)N[C@H]4CN5CCC4CC5)oc23)c1` [Example 108, N-[(3R)-1-Azabicyclo[2.2.2]oct-3-yl]-7-(3-{[(ethylamino)carbonyl]amino}phenyl)-1-benzofuran-2-carboxamide hydrochloride], the affinity corresponds to a Ki of 17 nM.

`O=C(N[C@H]1CN2CCC1CC2)c1cc2cccc(-c3ccc(N4CCOCC4=O)cc3)c2o1` [Example 90, N-[(3R)-1-Azabicyclo[2.2.2]oct-3-yl]-7-[4-(3-oxo-4-morpholinyl)phenyl]-1-benzofuran-2-carboxamide hydrochloride] returned an inhibition constant (Ki) of 14 nM.

`O=C(N[C@H]1CN2CCC1CC2)c1cc2cccc(-c3ccc(N4CCOCC4)cc3)c2s1` [Example 19, N-[(3R)-1-Azabicyclo[2.2.2]oct-3-yl]-7-[4-(4-morpholinyl)phenyl]-1-benzothiophene-2-carboxamide hydrochloride] yielded a Ki of 20 nM.

`O=C(N[C@H]1CN2CCC1CC2)c1cc2ccc(-c3ccc(N4CCOCC4)cc3)cc2o1` [Example 4, N-[(3R)-1-Azabicyclo[2.2.2]oct-3-yl]-6-[4-(4-morpholinyl)phenyl]-1-benzofuran-2-carboxamide] displayed a Ki of 24 nM.

For `COc1cccc(-c2cccc3cc(C(=O)N[C@H]4CN5CCC4CC5)sc23)c1` [Example 17, N-[(3R)-1-Azabicyclo[2.2.2]oct-3-yl]-7-(3-methoxyphenyl)-1-benzothiophene-2-carboxamide hydrochloride], the Ki stood at 17 nM.

Turning to `O=C(N[C@H]1CN2CCC1CC2)c1cc2cccc(-c3ccccc3CO)c2o1` [Example 150, N-[(3R)-1-Azabicyclo[2.2.2]oct-3-yl]-7-[2-(hydroxymethyl)phenyl]-1-benzofuran-2-carboxamide hydrochloride], the affinity, expressed as Ki, was 35 nM.

Compound `O=C(O)c1cccc(-c2cccc3cc(C(=O)N[C@H]4CN5CCC4CC5)oc23)c1` [Example 149, 3-(2-{[(3R)-1-Azabicyclo[2.2.2]oct-3-ylamino]carbonyl}-1-benzofuran-7-yl)-benzoic acid hydrochloride] came in with an inhibitory constant (Ki) of 97 nM.

Still in this test, the particulars now being: [3H]-methyllycaconitine displacement, rat brain membranes (hippocampus or whole brain); Ki=IC50/(1+L/KD); hydrochloride.
Take `COc1ccccc1-c1cccc2cc(C(=O)N[C@H]3CN4CCC3CC4)oc12` [Example 102, N-[(3R)-1-Azabicyclo[2.2.2]oct-3-yl]-7-[2-(methoxy)phenyl]-1-benzofuran-2-carboxamide hydrochloride]: the affinity, expressed as Ki, was 62 nM.
